Data: ChEMBL document CHEMBL1201862, “PubChem BioAssay data set” (2004)
Activity calls are given as the source filed them.

Experiments:
[1] = biological target: Dual specificity tyrosine-phosphorylation-regulated kinase 1A (Rattus norvegicus, UniProt Q63470); format: biochemical, Homo sapiens
[2] = viability of uninfected HEp-2 cells – cell-based, HTS, cytotoxicity control for RSV inhibitor project, dose response (AID 2410); format: functional; settings: human respiratory syncytial virus
[3] = Trypanosoma cruzi growth suppression in host cells – NIH3T3 host cells, beta-gal luminescence, confirmation (AID 2044); format: functional, cell-based;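 also: intracellular parasites grown in NIH/3T3 mouse fibroblasts as host cells; luminescent beta-galactosidase reporter signal from transgenic T. cruzi replicating inside host cells; inhibitors lower the luminescence signal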
Vero [4] = assay: cells; format: functional, cell-based; settings: Chlorocebus sabaeus
cells [5] = assay: cells
[6] = NIH3T3 cell viability loss – ATP luminescence, mouse fibroblasts, counter-screen, dose response (AID 2010); format: functional, cell-based;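 also: cells exposed to compound for about 90 hours before reading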
cells [7] = format: functional
[8] = Vero E6 cell cytotoxicity, dose response, cytotoxicity control for non-replicating M. tuberculosis project, secondary assay (AID 492998); format: functional, VeroE6; settings: Vero C1008
[9] = biological target: Voltage-dependent T-type calcium channel subunit alpha-1H (Homo sapiens, UniProt O95180); format: functional;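 also: channel activity triggered by adding a high calcium stimulation buffer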
[10] = microbe, parasite or virus in culture; format: functional; settings: Mycobacterium tuberculosis
[11] = system: Streptococcus sp. 'group A'; assay: Streptococcus pyogenes SK(-)GAS viability under kanamycin – luminescence, BacTiterGlo, confirmation, counter-screen for streptokinase expression inhibitor project, dose response (AID 1900); format: functional, organism-based
Streptokinase A = biological target: T1, Streptokinase A (Streptococcus pyogenes serotype M1, UniProt P10520); assay: viability-normalized secreted streptokinase activity reduction – plasminogen activation absorbance, OD405, dose response (AID 1914); format: functional, Streptococcus pyogenes M1 GAS;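 also: secreted streptokinase activity via plasminogen activation per viability signal from cell pellet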
T1 sequence (P10520 whole entry): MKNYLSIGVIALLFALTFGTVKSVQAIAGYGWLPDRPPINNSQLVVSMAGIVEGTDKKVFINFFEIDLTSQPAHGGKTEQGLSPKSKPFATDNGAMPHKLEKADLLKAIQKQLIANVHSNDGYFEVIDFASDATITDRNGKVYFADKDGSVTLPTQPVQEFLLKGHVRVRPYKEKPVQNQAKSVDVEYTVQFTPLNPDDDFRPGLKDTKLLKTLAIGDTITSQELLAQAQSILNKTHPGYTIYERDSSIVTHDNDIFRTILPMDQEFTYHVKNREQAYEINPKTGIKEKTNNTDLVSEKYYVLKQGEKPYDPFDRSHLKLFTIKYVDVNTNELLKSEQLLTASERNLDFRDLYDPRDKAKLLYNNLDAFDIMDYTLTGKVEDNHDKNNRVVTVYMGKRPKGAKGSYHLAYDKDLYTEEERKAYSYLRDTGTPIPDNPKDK

Streptococcus = assay: GAS UMAA2166 growth inhibition – luminescence, BacTiterGlo, counter-screen for streptokinase expression inhibitor project, dose response (AID 1915); format: functional, organism-based;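 also: potency for reduction of bacterial viability or growth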
[12] = biological target: T2, Voltage-gated N-type calcium channel alpha-1B subunit/Amyloid beta A4 precursor protein-binding family A member 1 (Homo sapiens, UniProt Q00975+Q02410); format: protein assay
[13] = biological target: T2, Voltage-gated N-type calcium channel alpha-1B subunit/Amyloid beta A4 precursor protein-binding family A member 1; format: protein assay; remark: listed apart in the source
HEK293 [14] = assay: cells; settings: Homo sapiens
HEK293 [15] = assay: cells; settings: Homo sapiens; remark: listed apart in the source
H4 = assay: Luminescence Cell-Based Dose Response HTS to Identify Activators of 5'UTR Stem-Loop Driven Prion Protein mRNA Translation in H4 Neuroglioblastoma Cells. [Related pubchem assays: 1829 (Project Summary), 1814 (Primary HTS)]; format: functional; settings: Homo sapiens
[16] = THP-1 cell cytotoxicity, dose response, cytotoxicity control for non-replicating M. tuberculosis project (AID 489025); format: functional
[17] = biological target: T3, Polyadenylate-binding protein 1 (Homo sapiens, UniProt P11940); assay: MLLE domain peptide-binding blockers, IC50 – biochemical, fluorescence polarization, FITC-PAM2 peptide, dose response (AID 602259); format: functional; settings: read-out: IC50_Mean
[18] = Luminescence Cell-Based Dose Confirmation HTS to Identify Activators of 5'UTR Stem-Loop Driven Alpha-Synuclein mRNA Translation in H4 Neuroglioblastoma Cells. [Related pubchem assays: 1829 (Project Summary), 1814 (Primary HTS)]; format: functional
[19] = biological target: FAD-linked sulfhydryl oxidase ALR (Homo sapiens, UniProt P55789); assay: ALR-catalysed DTT oxidation blockers – biochemical, H2O2 detection, luminescence, cherry-pick, dose response (AID 493248)
[20] = Luminescence Cell-Based Dose Response HTS to Identify Activators of Luciferase Translation or Activity in H4 […] Cells. [Related pubchem assays: 1829 (Project Summary), 1814 (Primary HTS)]; format: functional
[21] = biological target: T3, Polyadenylate-binding protein 1; assay: MLLE binding blockers, Cy5 peptide tracer – biochemical, fluorescence polarization, Cy5-PAM2 peptide, secondary, miRNA deadenylation inhibitor project, dose response (AID 602260); format: functional; settings: read-out: IC50_Mean
[22] = HEK-293T cell viability reduction – luminescence, B-cell screen hits, cytotoxicity control for BCR NF-kB inhibitor project, dose response (AID 489021); format: functional, cell-based;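 also: HEK-293T cells carrying an NF-kB luciferase reporter; cells exposed to compound for about 14 hours before viability readout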
[23] = biological target: T4, Histone-lysine N-methyltransferase NSD2 (Homo sapiens, UniProt O96028); format: biochemical
T4 sequence (O96028 whole entry): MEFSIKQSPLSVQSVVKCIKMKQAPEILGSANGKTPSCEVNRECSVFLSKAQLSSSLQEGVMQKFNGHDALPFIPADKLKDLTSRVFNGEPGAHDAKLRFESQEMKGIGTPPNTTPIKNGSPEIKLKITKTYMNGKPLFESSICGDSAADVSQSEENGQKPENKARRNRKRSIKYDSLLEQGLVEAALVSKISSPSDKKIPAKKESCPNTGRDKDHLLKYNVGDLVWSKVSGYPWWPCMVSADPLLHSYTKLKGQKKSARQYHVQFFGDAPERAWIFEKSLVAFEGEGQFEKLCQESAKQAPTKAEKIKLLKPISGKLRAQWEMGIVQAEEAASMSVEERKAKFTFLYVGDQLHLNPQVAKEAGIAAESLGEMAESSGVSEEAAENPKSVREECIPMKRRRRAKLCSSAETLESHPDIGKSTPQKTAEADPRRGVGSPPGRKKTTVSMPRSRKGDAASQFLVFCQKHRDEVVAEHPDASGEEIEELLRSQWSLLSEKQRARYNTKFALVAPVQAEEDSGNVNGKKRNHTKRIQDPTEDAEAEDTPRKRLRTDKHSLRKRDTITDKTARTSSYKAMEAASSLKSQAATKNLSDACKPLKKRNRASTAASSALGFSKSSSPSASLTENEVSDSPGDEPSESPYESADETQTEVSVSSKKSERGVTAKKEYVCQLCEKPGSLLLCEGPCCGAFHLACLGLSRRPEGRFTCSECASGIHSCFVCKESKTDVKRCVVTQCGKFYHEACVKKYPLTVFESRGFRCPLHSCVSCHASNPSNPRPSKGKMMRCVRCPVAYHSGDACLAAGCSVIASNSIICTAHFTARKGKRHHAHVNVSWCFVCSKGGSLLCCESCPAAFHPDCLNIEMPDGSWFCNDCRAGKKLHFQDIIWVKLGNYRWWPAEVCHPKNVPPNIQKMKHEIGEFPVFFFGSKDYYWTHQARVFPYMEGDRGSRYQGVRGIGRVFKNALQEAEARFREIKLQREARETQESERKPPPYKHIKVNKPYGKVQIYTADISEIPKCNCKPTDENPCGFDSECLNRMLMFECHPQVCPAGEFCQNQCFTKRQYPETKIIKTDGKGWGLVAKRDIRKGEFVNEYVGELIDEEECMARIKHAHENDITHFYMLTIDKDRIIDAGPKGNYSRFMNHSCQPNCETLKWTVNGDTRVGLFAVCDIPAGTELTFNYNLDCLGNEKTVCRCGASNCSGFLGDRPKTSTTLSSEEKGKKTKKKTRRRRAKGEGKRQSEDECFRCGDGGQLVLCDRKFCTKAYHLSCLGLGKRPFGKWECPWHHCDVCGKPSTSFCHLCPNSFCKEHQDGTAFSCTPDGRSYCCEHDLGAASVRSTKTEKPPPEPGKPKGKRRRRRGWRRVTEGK

[24] = Luminescence Cell-Based Dose Retest to Confirm Inhibitors of Cancer Stem Cells. [Related pubchem assays (depositor defined):AID2717, AID2721]; format: functional; settings: Homo sapiens
Vero [25] = assay: cells; format: functional; settings: Chlorocebus sabaeus
[26] = biological target: T5, High affinity choline transporter 1 (Homo sapiens, UniProt Q9GZV3); assay: human choline transporter blockers, potency – cell-based, 5-point CRC, membrane potential dye, dose response (AID 504840); format: functional
T5 sequence (Q9GZV3 whole entry): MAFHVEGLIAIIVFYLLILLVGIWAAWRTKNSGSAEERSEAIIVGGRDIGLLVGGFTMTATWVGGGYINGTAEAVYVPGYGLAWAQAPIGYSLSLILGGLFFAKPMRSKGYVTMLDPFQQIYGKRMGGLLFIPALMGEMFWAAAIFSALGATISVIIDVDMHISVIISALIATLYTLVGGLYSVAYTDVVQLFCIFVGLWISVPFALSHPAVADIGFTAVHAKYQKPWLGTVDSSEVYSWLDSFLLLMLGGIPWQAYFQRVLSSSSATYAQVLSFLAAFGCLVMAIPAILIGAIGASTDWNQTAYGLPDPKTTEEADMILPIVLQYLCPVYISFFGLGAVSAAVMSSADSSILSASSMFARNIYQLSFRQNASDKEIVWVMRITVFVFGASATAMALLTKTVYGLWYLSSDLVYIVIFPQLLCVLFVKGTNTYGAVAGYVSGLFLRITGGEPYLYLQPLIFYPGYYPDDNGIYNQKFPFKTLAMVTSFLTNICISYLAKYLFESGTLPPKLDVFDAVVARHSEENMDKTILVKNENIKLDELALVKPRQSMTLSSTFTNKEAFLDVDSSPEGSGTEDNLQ

[27] = biological target: DNA dC->dU-editing enzyme APOBEC-3G (Homo sapiens, UniProt Q9HC16); assay: Dose Response confirmation of small molecule APOBEC3G DNA Deaminase Inhibitors via a fluorescence-based single-stranded DNA deaminase assay. [Related pubchem assays (depositor defined):AID493012, AID493028]; format: functional
Beta-galactosidase = Beta-galactosidase (Escherichia coli, UniProt Q8VNN2); assay: detection-enzyme interference by beta-gal modulators – biochemical, E. coli enzyme, set 3, artefact control for CCR6 antagonist project, dose response (AID 504712); format: functional
[28] = biological target: Heat shock protein HSP 90-alpha (Homo sapiens, UniProt P07900); format: functional, organism-based
Large T antigen = Large T antigen (Simian virus 40, UniProt P03070); format: functional, Betapolyomavirus macacae;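 also: Confirmatory-stage PubChem screen for compounds that inhibit SV40 T antigen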
Sequence of Large T antigen (P03070 whole entry): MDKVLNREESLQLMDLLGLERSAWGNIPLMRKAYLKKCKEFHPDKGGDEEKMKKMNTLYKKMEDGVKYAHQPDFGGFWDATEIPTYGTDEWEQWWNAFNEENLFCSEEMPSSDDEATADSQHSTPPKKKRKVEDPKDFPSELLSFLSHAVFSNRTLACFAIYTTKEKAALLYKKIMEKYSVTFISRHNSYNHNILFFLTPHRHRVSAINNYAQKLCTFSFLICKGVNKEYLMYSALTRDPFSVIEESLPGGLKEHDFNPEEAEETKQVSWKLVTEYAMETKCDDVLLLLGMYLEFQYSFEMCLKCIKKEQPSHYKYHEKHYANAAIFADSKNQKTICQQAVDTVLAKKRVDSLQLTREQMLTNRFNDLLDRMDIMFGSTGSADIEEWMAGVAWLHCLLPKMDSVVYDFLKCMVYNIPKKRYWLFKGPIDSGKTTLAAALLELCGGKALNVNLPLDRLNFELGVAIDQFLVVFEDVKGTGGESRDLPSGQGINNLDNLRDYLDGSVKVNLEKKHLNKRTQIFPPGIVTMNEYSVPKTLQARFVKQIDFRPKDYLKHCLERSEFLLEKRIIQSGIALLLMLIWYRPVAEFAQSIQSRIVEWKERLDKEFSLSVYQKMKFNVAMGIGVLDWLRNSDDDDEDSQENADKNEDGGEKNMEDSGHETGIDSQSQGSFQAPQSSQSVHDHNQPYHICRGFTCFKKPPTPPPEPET

T2 sequence (Q00975 whole entry): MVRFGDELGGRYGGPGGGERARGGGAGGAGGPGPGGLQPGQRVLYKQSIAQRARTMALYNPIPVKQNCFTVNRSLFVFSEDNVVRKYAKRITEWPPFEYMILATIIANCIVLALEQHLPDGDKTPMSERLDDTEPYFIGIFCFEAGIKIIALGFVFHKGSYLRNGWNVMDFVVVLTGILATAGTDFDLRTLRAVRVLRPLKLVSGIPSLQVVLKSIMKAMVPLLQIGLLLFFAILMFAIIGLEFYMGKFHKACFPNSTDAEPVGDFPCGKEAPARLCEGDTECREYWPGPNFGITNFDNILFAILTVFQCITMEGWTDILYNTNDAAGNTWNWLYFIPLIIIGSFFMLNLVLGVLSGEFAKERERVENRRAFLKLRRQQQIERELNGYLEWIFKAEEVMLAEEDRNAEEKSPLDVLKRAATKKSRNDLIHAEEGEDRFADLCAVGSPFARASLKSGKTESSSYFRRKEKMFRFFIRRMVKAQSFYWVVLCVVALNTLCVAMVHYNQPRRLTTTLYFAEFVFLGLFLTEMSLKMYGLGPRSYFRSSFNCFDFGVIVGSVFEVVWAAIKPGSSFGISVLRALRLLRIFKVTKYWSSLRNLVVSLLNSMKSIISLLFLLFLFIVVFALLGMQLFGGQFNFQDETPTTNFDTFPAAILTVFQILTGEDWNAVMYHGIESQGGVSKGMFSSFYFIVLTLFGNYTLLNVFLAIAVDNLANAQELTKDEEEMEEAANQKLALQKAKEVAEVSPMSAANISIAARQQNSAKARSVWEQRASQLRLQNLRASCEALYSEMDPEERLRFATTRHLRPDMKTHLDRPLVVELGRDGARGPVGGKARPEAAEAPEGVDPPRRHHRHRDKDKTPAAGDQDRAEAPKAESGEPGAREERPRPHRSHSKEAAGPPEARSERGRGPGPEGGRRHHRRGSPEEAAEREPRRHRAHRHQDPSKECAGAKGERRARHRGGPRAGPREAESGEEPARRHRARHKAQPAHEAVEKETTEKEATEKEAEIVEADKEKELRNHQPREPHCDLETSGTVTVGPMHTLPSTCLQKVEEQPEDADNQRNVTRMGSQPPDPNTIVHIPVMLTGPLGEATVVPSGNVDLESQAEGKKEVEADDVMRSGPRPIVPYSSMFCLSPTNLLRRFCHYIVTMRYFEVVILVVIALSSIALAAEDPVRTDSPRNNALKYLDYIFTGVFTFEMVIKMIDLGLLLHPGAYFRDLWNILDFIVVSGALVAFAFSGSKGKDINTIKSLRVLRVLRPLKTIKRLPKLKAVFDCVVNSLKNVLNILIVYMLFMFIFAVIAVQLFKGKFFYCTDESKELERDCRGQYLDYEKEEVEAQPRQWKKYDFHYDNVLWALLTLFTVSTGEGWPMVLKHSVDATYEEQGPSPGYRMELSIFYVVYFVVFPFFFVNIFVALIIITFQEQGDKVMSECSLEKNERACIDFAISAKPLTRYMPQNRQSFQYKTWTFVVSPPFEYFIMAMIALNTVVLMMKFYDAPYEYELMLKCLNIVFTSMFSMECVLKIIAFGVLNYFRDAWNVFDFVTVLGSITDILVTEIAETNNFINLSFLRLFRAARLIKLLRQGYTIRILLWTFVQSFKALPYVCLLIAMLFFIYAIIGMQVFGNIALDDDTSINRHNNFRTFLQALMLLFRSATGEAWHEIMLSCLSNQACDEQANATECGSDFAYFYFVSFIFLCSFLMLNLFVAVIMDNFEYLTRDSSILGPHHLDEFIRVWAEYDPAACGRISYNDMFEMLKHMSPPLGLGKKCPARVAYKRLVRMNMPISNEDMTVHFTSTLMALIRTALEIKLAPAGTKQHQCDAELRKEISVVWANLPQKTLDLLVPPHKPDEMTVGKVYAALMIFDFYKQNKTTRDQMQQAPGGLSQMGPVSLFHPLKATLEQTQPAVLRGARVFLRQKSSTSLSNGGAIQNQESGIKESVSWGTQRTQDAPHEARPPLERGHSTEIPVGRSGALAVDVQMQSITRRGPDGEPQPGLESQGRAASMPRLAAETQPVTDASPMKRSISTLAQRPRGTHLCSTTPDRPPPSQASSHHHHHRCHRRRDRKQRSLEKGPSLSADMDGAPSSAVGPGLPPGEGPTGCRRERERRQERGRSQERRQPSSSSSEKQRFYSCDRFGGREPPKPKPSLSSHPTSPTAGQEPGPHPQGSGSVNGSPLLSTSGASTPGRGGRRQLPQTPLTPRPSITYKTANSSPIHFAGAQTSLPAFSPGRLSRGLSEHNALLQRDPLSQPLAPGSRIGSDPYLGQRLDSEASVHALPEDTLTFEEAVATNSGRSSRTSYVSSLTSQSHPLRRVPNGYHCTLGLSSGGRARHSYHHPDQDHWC
T2 sequence (Q02410 whole entry): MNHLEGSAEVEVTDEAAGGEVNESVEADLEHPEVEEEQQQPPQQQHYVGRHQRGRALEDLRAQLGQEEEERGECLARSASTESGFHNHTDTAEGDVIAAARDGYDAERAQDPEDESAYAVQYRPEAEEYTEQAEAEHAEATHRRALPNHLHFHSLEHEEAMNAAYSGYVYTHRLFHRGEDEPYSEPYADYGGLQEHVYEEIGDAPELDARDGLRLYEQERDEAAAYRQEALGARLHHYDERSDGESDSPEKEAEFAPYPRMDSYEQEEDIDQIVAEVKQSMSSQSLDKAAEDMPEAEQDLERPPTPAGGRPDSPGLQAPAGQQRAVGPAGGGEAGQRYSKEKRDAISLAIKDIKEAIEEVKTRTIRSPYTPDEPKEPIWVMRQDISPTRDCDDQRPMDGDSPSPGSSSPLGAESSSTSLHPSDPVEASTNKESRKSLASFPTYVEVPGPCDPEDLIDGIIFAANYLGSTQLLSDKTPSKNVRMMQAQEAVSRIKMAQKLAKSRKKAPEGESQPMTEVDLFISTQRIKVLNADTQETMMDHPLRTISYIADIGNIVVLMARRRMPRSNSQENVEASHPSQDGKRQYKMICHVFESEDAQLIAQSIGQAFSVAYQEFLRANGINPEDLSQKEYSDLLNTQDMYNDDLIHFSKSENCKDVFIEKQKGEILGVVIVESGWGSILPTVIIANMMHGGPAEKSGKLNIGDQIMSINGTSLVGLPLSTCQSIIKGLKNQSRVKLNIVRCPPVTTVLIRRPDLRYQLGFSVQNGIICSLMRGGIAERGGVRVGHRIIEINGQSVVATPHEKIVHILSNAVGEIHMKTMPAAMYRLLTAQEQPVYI
T3 sequence (P11940 whole entry, the tested form may be a part): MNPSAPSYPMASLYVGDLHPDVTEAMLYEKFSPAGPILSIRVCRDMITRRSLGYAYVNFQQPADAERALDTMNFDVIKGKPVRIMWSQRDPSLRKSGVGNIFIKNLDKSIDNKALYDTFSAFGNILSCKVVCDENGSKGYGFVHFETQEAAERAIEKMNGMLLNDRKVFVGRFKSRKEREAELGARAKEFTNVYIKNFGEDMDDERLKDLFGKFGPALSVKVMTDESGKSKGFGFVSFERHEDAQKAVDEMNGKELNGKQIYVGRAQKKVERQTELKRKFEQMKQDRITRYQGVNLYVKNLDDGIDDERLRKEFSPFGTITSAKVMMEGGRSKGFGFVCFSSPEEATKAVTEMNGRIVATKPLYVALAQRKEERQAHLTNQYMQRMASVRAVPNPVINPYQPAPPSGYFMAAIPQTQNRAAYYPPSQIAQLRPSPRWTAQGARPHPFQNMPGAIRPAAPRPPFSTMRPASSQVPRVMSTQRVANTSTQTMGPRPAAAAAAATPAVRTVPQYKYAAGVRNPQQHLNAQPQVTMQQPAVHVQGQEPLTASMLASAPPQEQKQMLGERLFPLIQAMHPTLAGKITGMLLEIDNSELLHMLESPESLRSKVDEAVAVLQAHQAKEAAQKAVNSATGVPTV
Sequence of FAD-linked sulfhydryl oxidase ALR (P55789 whole entry): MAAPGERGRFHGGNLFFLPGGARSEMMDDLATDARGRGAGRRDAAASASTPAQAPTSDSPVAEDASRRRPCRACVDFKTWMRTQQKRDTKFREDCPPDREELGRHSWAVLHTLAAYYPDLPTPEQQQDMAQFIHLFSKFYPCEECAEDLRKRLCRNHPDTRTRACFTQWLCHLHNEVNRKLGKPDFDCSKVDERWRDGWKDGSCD

Cc1ccc(-c2nn[nH]n2)cc1Cl
AC50 [1]: 9.99 µM (active)

O=c1c2ccccc2[nH]c(=S)n1CCCN1CCN(c2ccccc2)CC1
CC50 [2]: > 12.5 µM (active)
EC50 [3]: < 0.1 µM (active)
IC50 (Vero [4]): > 25 µM (active)
EC50 (cells [5]): 0.169 µM (active)
EC50 [6]: > 60 µM (not active)

Cc1ccc(C)c(-c2csc(NC(=O)c3cnccn3)n2)c1
IC50 (cells [7]): 3.99 µM (active)
CC50 [8]: 17.6 µM (active)
EC50 [3]: 2.04 µM (active)
EC50 [6]: 10.4 µM (active)

COc1ccccc1NC(=O)/C(O)=C/C(=O)c1ccccc1
IC50 (cells [7]): 32 µM (active)
CC50 [8]: > 20 µM (active)

O=C(OCc1ccccc1)c1cccc(-c2nnn(Cc3ccccc3)n2)c1
EC50 [9]: 9.03 µM (active)
CC50 [10]: > 40 µM (active)
EC50 [11]: > 150 µM (not active)
EC50 (Streptokinase A): 26 µM (inconclusive)
EC50 (Streptococcus): > 150 µM (not active)

O=c1c2ccccc2[nH]c(=S)n1CCCN1CCN(c2ccccc2F)CC1
IC50 (Vero [4]): > 25 µM (active)

CN(C)c1nc(-c2ccccc2)[n+](C)s1
IC50 [12]: 3.76 µM (active)
IC50 [13]: > 50 µM (inactive)

N#CC1=C(SCc2ccc(C#N)cc2)N=C(N)C(c2nc(-c3ccccc3)cs2)C12CCCCC2 (stereo not given)
EC50 (HEK293 [14]): > 59.6 µM (inactive)
EC50 (HEK293 [15]): > 59.6 µM (inactive)

Cc1ccc(N(C(=O)Cc2cccs2)C(C(=O)NC2CCCCC2)c2ccccn2)cc1C (stereo not given)
EC50 (HEK293 [14]): > 0.245 µM (active)
EC50 (HEK293 [15]): > 59.6 µM (inactive)

Cn1cnc([N+](=O)[O-])c1Sc1ccc([N+](=O)[O-])cc1
EC50 (H4): > 120 µM (not active)
IC50 (cells [7]): 10.8 µM (active)
CC50 [16]: > 40 µM (active)
CC50 [8]: > 20 µM (active)
IC50 [17]: > 66 µM (inactive)
EC50 [18]: > 120 µM (not active)
AC50 [19]: 8.39 µM (active)
EC50 [20]: > 120 µM (not active)
IC50 [21]: > 66 µM (inactive)
IC50 [22]: > 80 µM (inactive)

Cc1cc(C(=O)N/N=C/c2ccc(Cl)c([N+](=O)[O-])c2)c(C)n1-c1ccc(F)cc1
EC50 (HEK293 [14]): > 59.7 µM (inactive)
EC50 (HEK293 [15]): > 59.7 µM (inactive)

Cc1ccc(N2C(=O)NC(=O)/C(=C\C=C\c3ccco3)C2=O)cc1
EC50 (HEK293 [14]): > 59.6 µM (inactive)
AC50 [23]: > 20 µM (inactive)
EC50 (HEK293 [15]): > 59.6 µM (inactive)
AC50 [24]: 2.98 µM (active)

Cc1ccc(Oc2ccc(NC(=O)Cn3ccsc3=N)cc2)cc1
CC50 (Vero [25]): 19.1 µM (active)
CC50 [2]: 15.7 µM (active)
IC50 [26]: 13.2 µM (active)
IC50 (Vero [4]): > 25 µM (active)

COc1cc(N2C(=O)C=CC2=O)c(OC)cc1Cl
IC50 [12]: 11.6 µM (active)
IC50 [27]: 44 µM (active)
IC50 (Beta-galactosidase): > 66.6 µM (inactive)
AC50 [28]: 2.72 µM (active)
IC50 [13]: 1.97 µM (active)
IC50 (Large T antigen): 54.6 µM (active)
